Literature values, collected in article PMC5377275 (ACS Omega, 2017).

Test system: cytosolic lysates

O=C(O)COc1ccc(Br)cc1/C=C1\SC(=S)N(Cc2cccnc2)C1=O [SKPin C1]
Effect of inhibitor on ubiquitination of KGSYGK(FAM)RRR: impaired

O=C1c2ccccc2-c2nc3nonc3nc21 [SMER3]
Effect of inhibitor on ubiquitination of KGSYGK(FAM)RRR: impaired

KGSYGK(FAM)RRR
Ubiquitination of p53/MDM2-based peptide in cytosolic lysates: readily ubiquitinated

RRRG
Ubiquitination of primary degron in HeLa cell lysates (lysine residue positioned at the C-terminus): rapidly ubiquitinated
